Where “and” joins values, the source holds several entries; their conditions need not be identical. Equal values may be shown once.
Assays:
[1] = system: L. donovani promastigotes; test: Morphological analysis by transmission EM; assay type: cell-based, Leishmania donovani; conditions: two times EC50, 6 h
Description: Profound morphological changes were evident in parasites treated with compounds from this series. To gain additional insight into these compound-induced changes, L. donovani promastigotes were treated with 7 at a concentration equivalent to two times the established EC50 value for 6 h before analysis by transmission EM. […] In addition, there was a significant accumulation of intracellular vesicles within treated parasites (SI Appendix, Fig. S8). Based on our target identification studies, we reasoned that an inability to recycle key proteins via the proteasome left these parasites overcome by their own waste protein products. […]
95°C for 3 min; 40 cycles of 95°C for 20 s; then 60 °C for 20 s. […] Relative quantification in the tetracycline-induced cell lines were normalized to the un-induced cell line using the […]
Cultures of bloodstream T. brucei and L. donovani promastigotes at starting cell densities of 5 x 105 were incubated with concentrations of compound 7 equivalent to 5x their respective EC50 values. […] After washing, cell densities were adjusted to 5 × 10^5 cells mL, re-suspended in 500 µL of PBS containing 50 µg/mL propidium iodide, 50 µg/mL RNase and 0.1% Triton X-100, incubated at room temperature for 20 min in the dark and analysed using FACSort analytical flow cytometer using Cellquest software (BD Biosciences). j. […]

[2] = target: T1, human purified 26S proteasome (Homo sapiens, UniProt P28074+P49721); test: Proteasome activity assay, chymotrypsin-like, purified human 26S; assay type: biochemical
T1 construct: purchased Boston Biochem
Description: Proteasome activity assays
Compounds were dispensed into black 384-well assay plates (Greiner) by acoustic dispensing (LabCyte ECHO). For potency determinations, eleven-point, one in three dilution curves were generated, with a top concentration of 100 µM. Three proteasome activities were measured using a commercially available indirect enzyme-based luminescent assay kit (Promega) with Suc-LLVY-aminoluciferin, Z-LRR-aminoluciferin and Z-nLPnLD-aminoluciferin used as substrates for chymotrypsin-like, trypsin-like and caspase-like activities, respectively. In addition to proteasome samples: L. donovani and THP1-enriched proteasomes, commercially available human purified 26S proteasome (Boston Biochem) was also assessed. Proteasome final assay concentration were 0.025 mg/ml for L. donovani and THP1-enriched proteasomes and 1 nM for human purified 26S proteasome. Proteasome solution was added to the plates containing the compounds one hour before adding the proteasome substrate solution.
Substrate solution was then added and after 30 min of incubation luminescent signal was measured in an Envision reader (PerkinElmer).

L. donovani (LV9) = test: Mouse model of VL (in vivo efficacy in female Balb/C mice); parameters: species or system Leishmania donovani
Description: Infected mice were dosed at 3, 10, or 25 mg/kg orally twice a day for 10 consecutive days. Two days after the termination of treatment, mice were euthanized, and the parasite burdens in their livers were determined.
Peripheral blood samples were obtained at 5, 15, 30 min, 1, 2, 4, 6 ,8 and 24 h after intravenous administration and 15, 30, 45 min,1, 2, 4, 6, 8 and 24 h after oral administration. Blood was 1/2 diluted with milliQ water and immediately frozen on dry ice until analysis. Quantification was performed by means of LC-MS/MS (API4000), with a lower limit of quantification of 1 ng/mL. […]
Data analysis and calculation of pharmacokinetic parameters was performed using Phoenix, WinNonLin Version 6.3. […]
For both intravenous and oral administration, the systemic exposures were determined by calculating the area under the blood concentration time curve (AUC) from the start of dosing to the last observed quantifiable concentration (AUC0-t) by using the linear up-log down trapezoidal rule. The slope of the terminal elimination phase was estimated by linear regression of the terminal data points (minimum 3 points) from a natural log concentration versus time plot of the data. The half-life (t1/2) of the terminal elimination phase was calculated as t1/2 = 0.693/λ.
7. In vivo efficacy in female Balb/C mice
To establish infection in mice, sodium stibogluconate-sensitive L. donovani (LV9, WHO designation: MHOM/ET/67/HU3) amastigotes were isolated from the spleen of a heavily infected donor hamster (Janvier, France)7. An inoculum containing 1.0 x 10^8 amastigotes/mL in Dulbecco’s modified eagles medium (high glucose) was prepared […]
and female BalbC mice (Harlan, UK) then infected intravenously via the tail vein with a 0.2 mL bolus (equivalent to ~2.0 x 10^7 amastigotes). Infection was left to establish for […]
daily orally as a suspension in 0.5% hydroxypropylmethylcellulose, 0.4% tween 80 and 0.5% benzyl alcohol. With twice daily regimens, the second daily dose was administered approximately 8 h following the first dose. Dose regimens evaluated were:
1. 50 mg/kg twice daily for 5 days
2. 25 mg/kg, 10 mg/kg and 3 mg/kg twice daily for 10 days
3. 25 mg/kg once daily for 10 days
Miltefosine, as the only oral treatment for visceral leishmaniasis, was used as a […]

[3] = 10-d treatment orally twice a day

SMILES	morphological changes (transmission EM) [1]	IC50 [2]	Reduction in parasite burden (compared to the vehicle control group) (L. donovani (LV9); 3 mg/kg b.i.d. (10 days PO))	Reduction in parasite burden (compared to the vehicle control group) (L. donovani (LV9); 10 mg/kg b.i.d. (10 days PO))	Reduction in parasite burden (compared to the vehicle control group) (L. donovani (LV9); 25 mg/kg b.i.d. (10 days PO))	exposure giving >95% parasite burden reduction (L. donovani (LV9); 25 mg/kg twice a day for 10 days)	Reduction in parasite burden (compared to the vehicle control group) (L. donovani (LV9); 25 mg/kg u.i.d. (10 days PO))	ED90 (L. donovani (LV9); [3])	ED99 (L. donovani (LV9); [3])	ED50 (L. donovani (LV9); Leishmania donovani, po, 240 h, 10-d treatment orally twice a day)
O=C(Nc1ccc(F)c(-c2cn3nc(-c4ccccc4)cnc3n2)c1)N1CCCC1 [Compound 7]	swelling of promastigotes	–	–	–	–	–	–	–	–	–
O=C(Nc1ccc(F)c(-c2ccn3c(N4CCOCC4)cnc3n2)c1)N1CCCC1 [Compound 8]	–	13 ± 0.88 µM	18.4%	56.9%	98.1% and > 95%	27 μg/h per mililiter	8.8%	16 mg/kg	30 mg/kg	8.9 mg/kg
